# According to patent US20230172206A1 (BASF SE, priority 2020, published 2023):
# Where “and” joins values, the source holds several entries; their conditions need not be identical. Equal entries are not always repeated. Where two headings read alike, the source gives them in different places.
# How the values were obtained:
# [1] = tested on: Cercospora sojina; assay type: cell-based; settings: 4 ppm, 7 days after inoculation, relative to compound-free control (100%)
# [2] = tested on: Alternaria solani (F129L); assay: Micro titer plate test against early blight (ALTESO F129L); assay type: cell-based; settings: 0.016 ppm, 7 days after inoculation, relative to compound-free control (100%)
# [3] = tested on: Alternaria solani (wt); assay type: cell-based
# [4] = tested on: Septoria tritici; assay: Micro titer plate test against leaf blotch on wheat (SEPTTR); assay type: cell-based
# [5] = tested on: Phakopsora pachyrhizi (F129L); assay: Protective control of soybean rust on soybeans (PHAKPA P6); assay type: in vivo
# [6] = tested on: Pyrenophora teres (wt); assay: Micro titer plate test against net blotch on barley (PYRNTE wt); assay type: cell-based; settings: 0.25 ppm, 7 days after inoculation, relative to compound-free control (100%)
# [7] = tested on: Microdochium nivale; assay type: cell-based; settings: 0.016 ppm, 7 days after inoculation, relative to compound-free control (100%)
# [8] = tested on: Colletotrichum orbiculare; assay: Micro titer plate test against anthracnose (COLLLA); assay type: cell-based; settings: 0.063 ppm, 7 days after inoculation, relative to compound-free control (100%)
# [9] = tested on: Leptosphaeria nodorum; assay: Micro titer plate test against wheat leaf spots (LEPTNO); assay type: cell-based; settings: 0.063 ppm, 7 days after inoculation, relative to compound-free control (100%)
# [10] = tested on: Phakopsora pachyrhizi (F129L); assay: Protective control of soybean rust on soybeans (PHAKPA P2); assay type: in vivo; settings: for PHAKPA (F129L) Disease level (%) P2 at 4 ppm: protective, inoculation 2 days after spraying, % diseased leaf area
# [11] = tested on: Phakopsora pachyrhizi (wt); assay: Protective control of soybean rust on detached soybean leaves (PHAKPA P1 DL), Qo inhibitor-sensitive wt isolate; assay type: in vivo
# [12] = tested on: Phakopsora pachyrhizi (F129L); assay: Protective control of soybean rust on detached soybean leaves (PHAKPA P1 DL), F129L isolate; assay type: in vivo
# [13] = 0.016 ppm, 7 days after inoculation, relative to compound-free control (100%)
# [14] = 0.25 ppm, 7 days after inoculation, relative to compound-free control (100%)
smiles,measurement,setting,value
CO/N=C(/C(=O)OC)c1cccc(C)c1CO/N=C(\OC)c1cccc(C(F)(F)F)c1,Fungal growth (%) CERCSO,[1],56%
CNC(=O)/C(=N/OC)c1cccc(C)c1CO/N=C(\SC)c1cccc(C(F)(F)F)c1,Fungal growth (%) ALTESO F129L,[2],85%
same,Fungal growth (%) CERCSO,[1],66%
CO/N=C(/C(=O)OC)c1cccc(C)c1CO/N=C(\OC)c1cccc(C)c1,Fungal growth (%) ALTESO F129L,[2],81%
same,Fungal growth (%) ALTESO wt,[3]; [13],93%
same,Fungal growth (%) CERCSO,[1],67%
CNC(=O)/C(=N/OC)c1cccc(C)c1CO/N=C(\OC)c1cccc(C)c1,Fungal growth (%) ALTESO F129L,[2],95%
same,Fungal growth (%) ALTESO wt,[3]; [13],93%
same,Fungal growth (%) SEPTTR,[4]; [14],100%
CNC(=O)/C(=N/OC)c1cccc(C)c1CO/N=C(/c1cccc(C)c1)C1CC1,Fungal growth (%) ALTESO F129L,[2],93%
same,Fungal growth (%) ALTESO wt,[3]; [13],89%
same,Fungal growth (%) SEPTTR,[4]; [14],87%
CNC(=O)/C(=N/OC)c1cccc(C)c1CO/N=C(\C)c1cccc(C(F)(F)F)c1 [compound 8],Fungal growth (%) ALTESO F129L,[2]; listed as Ex. 8,55% and 52%
same,Fungal growth (%) ALTESO wt,[3],56%
same,Fungal growth (%) SEPTTR,[4],57%
CO/N=C(/C(=O)OC)c1cccc(C)c1CO/N=C(\C)c1cccc(C(F)(F)F)c1 [compound 9],PHAKPA (F129L) Disease level (%) P6 at 16 ppm,"[5]; protective, inoculation six days after spraying, % diseased leaf area, listed as Ex. 9",4% and 1%
same,Fungal growth (%) ALTESO wt,[3]; [13],73%
same,Fungal growth (%) CERCSO,[1],11%
CO/N=C(/C(=O)OC)c1cccc(C)c1CO/N=C(\C)c1cccc(C)c1 [compound 76],PHAKPA (F129L) Disease level (%) P6 at 16 ppm,"[5]; protective, inoculation six days after spraying, % diseased leaf area, listed as Ex. 76",0% and 4%
same,Fungal growth (%) ALTESO F129L,[2],37%
same,Fungal growth (%) ALTESO wt,[3]; [13],55%
same,Fungal growth (%) CERCSO,[1],28%
same,Fungal growth (%) SEPTTR,[4]; [14],0%
CO/N=C(/C(=O)OC)c1cccc(C)c1CO/N=C(\C)c1cccc(Cl)c1 [compound 153],Fungal growth (%) PYRNTE wt,[6],31%
same,PHAKPA (F129L) Disease level (%) P6 at 16 ppm,"[5]; protective, inoculation six days after spraying, % diseased leaf area, listed as Ex. 153",1% and 5%
same,Fungal growth (%) ALTESO F129L,[2],68%
same,Fungal growth (%) MONGNI,[7],75%
same,Fungal growth (%) ALTESO wt,[3]; [13],71%
same,Fungal growth (%) CERCSO,[1],26%
same,Fungal growth (%) COLLLA,[8],55%
same,Fungal growth (%) LEPTNO,[9],55%
same,Fungal growth (%) SEPTTR,[4]; [14],0%
CNC(=O)/C(=N/OC)c1cccc(C)c1CO/N=C(\C)c1cccc(Cl)c1 [compound 157],Fungal growth (%) PYRNTE wt,[6],54%
same,Fungal growth (%) ALTESO F129L,[2],57%
same,Fungal growth (%) MONGNI,[7],56%
same,Fungal growth (%) ALTESO wt,[3]; [14],27%
same,Fungal growth (%) CERCSO,[1],36%
same,PHAKPA (F129L) Disease level (%) P2 at 4 ppm,[10]; listed as Ex. 157,0% and 1%
same,Fungal growth (%) COLLLA,[8],63%
same,Fungal growth (%) SEPTTR,[4]; [14],20%
CNC(=O)/C(=N/OC)c1cccc(C)c1CO/N=C(\C)c1ccc(Cl)cc1 [compound 158],% PHAKPA (F129L) Disease level P6 at 4 ppm,"[5]; protective P6, 4 ppm, soybean rust F129L isolate",2%
same,% PHAKPA (F129L) Disease level P6 at 16 ppm,"[5]; protective P6, 16 ppm, soybean rust F129L isolate",0%
same,PHAKPA (F129L) Disease level (%) P6 at 4 ppm,"[5]; protective, inoculation six days after spraying, 4 ppm, % diseased leaf area",4%
same,PHAKPA P1 DL Disease level (%) Qo I-sensitive wt isolate (0 % F129L),[11]; test concentration 0.3 ppm,38%
same,PHAKPA P1 DL Disease level (%) Qo I-sensitive wt isolate (0 % F129L),[11]; test concentration 1 ppm,7%
same,PHAKPA P1 DL Disease level (%) Qo I-sensitive wt isolate (0 % F129L),[11]; test concentration 3 ppm,2%
same,PHAKPA P1 DL Disease level (%) Qo I-sensitive wt isolate (0 % F129L),[11]; test concentration 10 ppm,1%
same,PHAKPA P1 DL Disease level (%) Qo I-sensitive wt isolate (0 % F129L),[11]; test concentration 30 ppm,4%
same,PHAKPA P1 DL Disease level (%) Qo I-sensitive wt isolate (0 % F129L),[11]; test concentration 100 ppm,5%
same,PHAKPA P1 DL Disease level (%) Qo I-sensitive wt isolate (0 % F129L),[11]; test concentration 300 ppm,4%
same,PHAKPA P1 DL Disease level (%) Qo I-resistant F129L isolate (100 % F129L),[12]; test concentration 0.3 ppm,87%
same,PHAKPA P1 DL Disease level (%) Qo I-resistant F129L isolate (100 % F129L),[12]; test concentration 1 ppm,57%
same,PHAKPA P1 DL Disease level (%) Qo I-resistant F129L isolate (100 % F129L),[12]; test concentration 3 ppm,8%
same,PHAKPA P1 DL Disease level (%) Qo I-resistant F129L isolate (100 % F129L),[12]; test concentration 10 ppm,2%
same,PHAKPA P1 DL Disease level (%) Qo I-resistant F129L isolate (100 % F129L),[12]; test concentration 30 ppm,4%
same,PHAKPA P1 DL Disease level (%) Qo I-resistant F129L isolate (100 % F129L),[12]; test concentration 100 ppm,4%
same,PHAKPA P1 DL Disease level (%) Qo I-resistant F129L isolate (100 % F129L),[12]; test concentration 300 ppm,5%
same,Fungal growth (%) ALTESO F129L,[2],79%
same,Fungal growth (%) MONGNI,[7],71%
same,Fungal growth (%) ALTESO wt,[3]; [13],66%
same,% PHAKPA (F129L) Disease level P2 at 4 ppm,"[10]; protective P2, 4 ppm, soybean rust F129L isolate",0%
same,% PHAKPA (F129L) Disease level P2 at 16 ppm,"[10]; protective P2, 16 ppm, soybean rust F129L isolate",0%
same,PHAKPA (F129L) Disease level (%) P2 at 4 ppm,[10],1%
Cc1cccc(-n2nnn(C)c2=O)c1COc1ccn(-c2ccc(Cl)cc2)n1 [drawing 930],Fungal growth (%) ALTESO F129L,[2],100%
same,Fungal growth (%) MONGNI,[7],97%
same,Fungal growth (%) ALTESO wt,[3]; [13],98%
"Cc1cccc(-n2nnn(C)c2=O)c1COc1ccn(-c2ccc(Cl)cc2)n1 [drawing 932, reference compound]",PHAKPA P1 DL Disease level (%) Qo I-sensitive wt isolate (0 % F129L),[11]; test concentration 0.3 ppm,78%
same,PHAKPA P1 DL Disease level (%) Qo I-sensitive wt isolate (0 % F129L),[11]; test concentration 1 ppm,80%
same,PHAKPA P1 DL Disease level (%) Qo I-sensitive wt isolate (0 % F129L),[11]; test concentration 3 ppm,77%
same,PHAKPA P1 DL Disease level (%) Qo I-sensitive wt isolate (0 % F129L),[11]; test concentration 10 ppm,48%
same,PHAKPA P1 DL Disease level (%) Qo I-sensitive wt isolate (0 % F129L),[11]; test concentration 30 ppm,30%
same,PHAKPA P1 DL Disease level (%) Qo I-sensitive wt isolate (0 % F129L),[11]; test concentration 100 ppm,18%
same,PHAKPA P1 DL Disease level (%) Qo I-sensitive wt isolate (0 % F129L),[11]; test concentration 300 ppm,5%
"Cc1cccc(-n2nnn(C)c2=O)c1COc1ccn(-c2ccc(Cl)cc2)n1 [drawing 934, reference compound]",PHAKPA P1 DL Disease level (%) Qo I-resistant F129L isolate (100 % F129L),[12]; test concentration 0.3 ppm,88%
same,PHAKPA P1 DL Disease level (%) Qo I-resistant F129L isolate (100 % F129L),[12]; test concentration 1 ppm,90%
same,PHAKPA P1 DL Disease level (%) Qo I-resistant F129L isolate (100 % F129L),[12]; test concentration 3 ppm,95%
same,PHAKPA P1 DL Disease level (%) Qo I-resistant F129L isolate (100 % F129L),[12]; test concentration 10 ppm,92%
same,PHAKPA P1 DL Disease level (%) Qo I-resistant F129L isolate (100 % F129L),[12]; test concentration 30 ppm,90%
same,PHAKPA P1 DL Disease level (%) Qo I-resistant F129L isolate (100 % F129L),[12]; test concentration 100 ppm,65%
same,PHAKPA P1 DL Disease level (%) Qo I-resistant F129L isolate (100 % F129L),[12]; test concentration 300 ppm,52%
